Series [1] in a line: Toxicity and body weight change in treated L1210 tumour-bearing mice. The class given is in vivo, mice (female C57B1×DBA2 F1 hybrid). As for the experimental part: (§1) The L1210 tumour was carried routinely in DBA2 mice. For experiments 5×10^4 cells were implanted i.p. into female C57B1×DBA2 F1 hybrid mice 3 days prior to treatment, giving an established tumour of about 2×10^6 cells at the time of treatment.

Series [2] has as its system transport of tritiated methotrexate into L1210 cells. Put plainly: Inhibition of transport of tritiated methotrexate into L1210 cells. Format: cell-based, mouse. The protocol:
(§2) The compounds of Example 2 were evaluated in vitro as inhibitors as TS and cell growth and in vivo against the L1210 tumour. Since methotrexate (MTX) resistance is an important problem in cancer therapy, the compounds of the present invention were also investigated with this in mind. The cross-resistance of the MTX resistant cell line L1210/R71, which is known to have elevated DHFR but normal MTX transport, was measured in culture, and the ability of the compounds of the invention to compete with labelled MTX or folic acid for transport into L1210 cells was also assessed.
(§3) Transport studies were conducted on compound CB 3717 as representative of the invention compounds by incubating cells in the presence of a labelled substance, removing aliquots, separating and washing the cells by centrifugation and counting the pellet.

In series [3] the test system is L1210 cells. Put plainly: Reversal of toxicity to L1210 cells in culture by thymidine. The class given is cell-based, mouse. The protocol:
(§4) L1210 and L1210:R71 cells were grown in continuous suspension culture in RPMI 1640 medium containing 10% horse serum (Flow Laboratories, Irvine, Scotland; UK). Cells were diluted to 10^5 /ml and additions (diluted in medium and sterilised in Millipore filtration) made prior to starting each incubation. Cell counts were performed after 24 and 48 hours using an improved Neubauer haemocytometer.

The subject of series [4] is L1210 cells. Put plainly: Reversal of toxicity to L1210 cells in culture by folinic acid. Format: cell-based, mouse. The settings on record: folinic acid up to 100 μM; FIG. 1: 20 μM CB 3717. The protocol: as §4
Series [5] concerns L1210 cells. As to the kind of experiment: Growth inhibition of L1210 cells in suspension culture, 48 h count. The conditions noted are these: Mus musculus. Format: cell-based. The protocol: Cells were diluted to 10^5 /ml and additions (diluted in medium and sterilised in Millipore filtration) made prior to starting each incubation. Cell counts were performed after 24 and 48 hours using an improved Neubauer haemocytometer.

In series [6] the test system is transport of tritiated folic acid into L1210 cells. Put plainly: Inhibition of transport of tritiated folic acid into L1210 cells. Format: cell-based, mouse. As for the experimental part:
as §2, §3

The subject of series [7] is L1210 tumour. As to the kind of experiment: Treatment of L1210 ascitic tumour-bearing mice, survival. The settings on record: for long term survivors (>120 days): FIG. 3. Format: in vivo, mice (female C57B1×DBA2 F1 hybrid). The protocol:
as §1
(Animals were injected with 20 mM NaHCO3 buffer 0.4 ml daily×5 days.
As the injection solutions could only be neutralised to pH 8.5 while preserving solubility, the appropriate controls were injected with bicarbonate at pH 8.5. […] For comparative purposes further groups of animals were treated with various doses of methotrexate, given on the same schedule.

For series [8] the following is noted: majority of cell types; cited from earlier work.
The test system of series [9] is L1210:R71 cells. Put plainly: Growth inhibition of methotrexate-resistant L1210:R71 cells in suspension culture, 48 h count. The conditions noted are these: relative to L1210. Format: cell-based, mouse. The protocol:
The compounds of Example 2 were evaluated in vitro as inhibitors as TS and cell growth and in vivo against the L1210 tumour. Since methotrexate (MTX) resistance is an important problem in cancer therapy, the compounds of the present invention were also investigated with this in mind.
as §4

The mark [10] stands for this setting: 8 mg/kg i.p., daily × 5, 5 animals.
Where [11] appears, read: 16 mg/kg i.p., daily × 5, 5 animals, first 16 mg/kg line.
The mark [12] stands for this setting: 16 mg/kg i.p., daily × 5, 5 animals, second 16 mg/kg line.
[13] abbreviates: 32 mg/kg i.p., daily × 5, 5 animals.
Where [14] appears, read: 64 mg/kg i.p., daily × 5, 5 animals.
Where [15] appears, read: 80 mg/kg i.p., single dose, 5 animals.
[16] abbreviates: 128 mg/kg i.p., daily × 5, 5 animals.
The mark [17] stands for this setting: 160 mg/kg i.p., single dose, 5 animals.
[18] abbreviates: methotrexate 3 mg/kg (optimal dose), daily×5, 10 animals.

“Also recorded” adds a separate entry of the source. Read-outs that look alike come from different tables or passages of the source.

As for `C#CCN(Cc1ccc2nc(N)nc(O)c2c1)c1ccc(C(=O)N[C@@H](CCC(=O)O)C(=O)O)cc1` [CB 3717, N-(4-(N-((2-amino-4-hydroxy-6-quinazolinyl)methyl)prop-2-ynylamino)benzoyl)-L-glutamic acid], the “body weight change / signs of toxicity” value in [1] (5 daily doses, 125 and 200 mg/kg/day, groups of 10 mice, FIG. 4) is recorded as “did not lose a significant amount of weight or show other signs of toxicity”. The “toxicity of single doses” value in [1] (single doses up to 160 mg/Kg i.p.) is recorded as “not toxic”. Further, the “apparent transport by the pathway used for methotrexate” value in series [2] is on record as “can apparently be transported by the pathway used for methotrexate”. Besides, the “effect on transport of tritiated methotrexate” value in series [2] (4 μM MTX, FIG. 2) was “inhibited; also recorded: dose-dependent reduction”. Also, in series [3] (second results table, L1210), the “Reversal by thymidine (in culture)” value is given as “yes”. In addition, the “reversal of toxicity by co-incubation with thymidine” value in series [3] (thymidine 10 μM, FIG. 1: 20 μM CB 3717) is reported as “Reversal of the toxicity; also recorded: virtually complete protection”. In addition, the “reversal of toxicity by folinic acid” value in series [4] was “only partial reversal; also recorded: does not reverse the effect”. Moreover, the IC50 was 6.5 to 8.5 µM in series [5] (L1210, 48 h, second results table, read-out: ID50 L1210 (Tissue culture)) and 5 µM in series [5] (L1210, Table 2, 48 hour count reduced to 50% of control, read-out: ID50 L1210). Moreover, the “apparent transport by the pathway for folic acid” value in [6] is “also by that for folic acid”. Moreover, the “effect on transport of tritiated folic acid” value in [6] (4 μM folic acid, FIG. 2) is “inhibited; also recorded: dose-dependent reduction”. For the same compound, the “% Increase in mean survival time” value in [7] (setting [10]) is on record as 8%; in series [7] (setting [11]) it was 13%; in [7] (setting [12]) it was 29%; in [7] (setting [13]), 62%; in series [7] (setting [14]), 72%; in [7] (setting [15]), 14%. For the same compound, the “% Increase in mean survival time” value in series [7] (125 mg/kg i.p., daily × 5, 10 animals, see FIG. 3) is listed as > 1200%; in [7] (setting [16]), > 1200%; in series [7] (setting [17]), 32%; in series [7] (200 mg/kg i.p., daily × 5, 10 animals, see FIG. 3), > 1200%. The “Long term survivors (>200 days)” value in series [7] (setting [10]), in series [7] (setting [11]), in series [7] (setting [12]), in [7] (setting [13]), in series [7] (setting [14]) and in [7] (setting [15]) was 0 in each case. Also, the “Long term survivors (>200 days)” value in [7] (125 mg/kg i.p., daily × 5, 10 animals) stood at 9; in series [7] (setting [16]), 4; in series [7] (setting [17]), 0; in [7] (200 mg/kg i.p., daily × 5, 10 animals) it was 9. The “long term survivors (>120 days)” value in series [7] (125 mg/kg, 5 daily doses) is 9 out of 10; in series [7] (200 mg/kg, 5 daily doses) it was 9 out of 10. The “increase in mean survival time with 5 daily dose schedule” value in series [7] (5 daily doses, see Table 3) is “dose related”. The “difference in survival of CB 3717 and MTX treated animals, p (log rank test)” value in series [7] (CB 3717 125 and 200 mg/kg vs MTX 3 mg/kg, daily×5) is given as < 0.001.

Take `CN(Cc1cnc2nc(N)nc(N)c2n1)c1ccc(C(=O)N[C@@H](CCC(=O)O)C(=O)O)cc1` [methotrexate, reference compound]: the metabolic degradation entry in series [8] was “does not undergo significant metabolic degradation”. Moreover, the “resistance of L1210:R71 to MTX” value in series [9] is reported as “about 600 fold”. Besides, in series [7] (setting [18]), the “increase in median lifespan” value amounted to 71% and the long term survivors was 2/10.

The values are drawn from US4447608A, “Anti-cancer quinazoline derivatives” (priority 1979, dated 1984).
